Laboratory results reported in paper PMC7918738, “Microtubule Destabilizing Sulfonamides as an Alternative to Taxane-Based Chemotherapy” (International Journal of Molecular Sciences, 2021).

Assays:
[1] = system: HeLa (cervix epithelioid carcinoma); experiment: Antiproliferative activity against HeLa (XTT colorimetric method); format: cell-based; conditions: Homo sapiens, 72 h treatment
Description: (§1) The in vitro antiproliferative activity of MDS at 1 µM after 72 h treatments was evaluated by a colorimetric method against the human tumor cell lines HeLa (cervix epithelioid carcinoma) and MCF7 (breast adenocarcinoma). Compounds showing more than 40% inhibition at 1 µM in at least three independent assays were evaluated in a range of concentrations between 0.1 nM and 10 µM for the determination of half-maximal inhibitory concentrations (IC50) (Table 1). Paclitaxel, CA-4, and ABT-751 were used as references.
(§2) MCF7 (human breast carcinoma), SKOV-3 (human ovarian carcinoma), OVCAR-3 (human ovarian carcinoma), OVCAR-8 (human ovarian carcinoma), and HeLa (human cervical carcinoma) cell lines were cultured in Dulbecco’s Modified Eagle’s Medium (DMEM) (Gibco, Thermo Fischer Scientific) containing 10% (v/v) heat-inactivated fetal bovine serum (HIFBS) (Lonza-Cambrex, Karlskoga, Sweden), 2 mM L-glutamine (Lonza-Cambrex, Karlskoga, Sweden), 100 μg/mL streptomycin, and 100 IU/mL penicillin (Lonza-Cambrex) at 37 °C in humidified 95% air and 5% CO2. HT-29 (human colon carcinoma), IGROV-1 (human ovarian carcinoma), and A2780 (human ovarian carcinoma) cell lines were cultured in RPMI 1640 medium (Gibco, Thermo Fischer Scientific) supplemented with 10% HIFBS, 100 μg/mL streptomycin, and 100 IU/mL penicillin at 37 °C in humidified 95% air and 5% CO2 atmosphere. The presence of mycoplasma was routinely checked with MycoAlert kit (Lonza-Cambrex) and only mycoplasma-free cells were used in the experiments. Ovarian tumor cell lines were originally acquired from Dr Atanasio Pandiella from Centro de Investigación del Cáncer (CIC), Salamanca, Spain. HeLa, HT-29 and MCF7 tumor cell lines were provided by Dr Faustino Mollinedo from Centro de Investigaciones Biológicas Margarita Salas, Madrid, Spain.
(§3) MCF7, HeLa, and HT-29 cell proliferation, when treated with the corresponding compounds, were determined using the XTT (sodium 3’-[1(phenylaminocarbonyl)-3,4-tetrazolium]-bis(4-methoxy-6-nitro)-benzenesulfonic acid hydrate) cell proliferation kit (Roche Molecular Biochemicals, Mannheim, Germany). A freshly prepared mixture of XTT labeling reagent with 0.02% (v/v) PMS (N-methyl-dibenzopyrazine methyl sulfate) electron coupling reagent was added to cells (50 µL/well in 96-well plates, total volume of 160 µL/well). Cells were incubated under standard culture conditions for 4 h (MCF7 and HeLa) or 6 h (HT-29). The absorbance of the formazan product generated was measured at 450 nm using a multi-well plate reader. SKOV-3, OVCAR-3, OVCAR-8, IGROV-1, A-2780 cell proliferation, when treated with the corresponding compound, were determined using MTT (3-(4,5-dimethylthiazol-2-yl)-2,5-diphenyl-2H-tetrazolium bromide) (Sigma-Aldrich, St. Louis, MO, USA). MTT in Phosphate Buffer Saline (PBS) (5 mg/ml) was added to cells (110 µL/well in 24-well plates, total volume of 1110 µL/well). After 1 hour of incubation, the medium was aspirated, and formazan violet crystals were dissolved in dimethyl sulfoxide (DMSO) (500 µL/well). Absorbance was measured at 570 nm in a plate reader (Ultra Evolution, Tecan, Männedorf, Suiza). To determine cell viability, cells in exponential growth phase were seeded (100 µL/well in 96-well plates and 1000 µL/well in 24-well plates) with appropriate cell line concentration (1.5·10^4 cells/mL for MCF7 and HeLa, 3·10^4 cells/mL for HT-29, and 1·10^4 cells/mL for SKOV-3, OVCAR-3, OVCAR-8, IGROV-1, and A-2780) in complete RPMI 1640 or DMEM medium at 37°C and 5% CO2 atmosphere. After 24 h incubation, to allow cells to attach to the plates, all compounds were added at 1 µM concentration and the effect on the proliferation was evaluated 72 h post-treatment. Compounds showing antiproliferative effects at tested concentration were selected for IC50 calculation (50% inhibitory concentration with respect to the untreated controls) from 10^−5 to 10^−10 M concentration. Non-linear curves fitting the experimental data were carried out for each compound. […]

[2] = system: MCF7 (breast adenocarcinoma); experiment: Antiproliferative activity against MCF7 (XTT colorimetric method); format: cell-based; conditions: Homo sapiens, 72 h treatment
Description: as §1, §2, §3

[3] = system: tubulin (microtubular protein isolated from calf brain); experiment: Tubulin Polymerization Inhibition (TPI) assay, turbidity; format: biochemical; conditions: 1.5 mg/mL microtubular protein; for TPI % 10 µM: compound at 10 µM
Description: The effect of all the synthesized compounds on the in vitro tubulin polymerization was evaluated at 10 µM. All the compounds that inhibited polymerization more than 30% were also assayed at 20 µM. IC50 values were calculated for those compounds inhibiting tubulin polymerization by at least 50% at 20 µM (Table 1 and Supplemental Figure S2).
Microtubular protein was isolated from calf brain according to the modified Shelanski method by two cycles of temperature-dependent assembly/disassembly and stored at −80 °C. Before each use, protein concentration was determined by the Bradford method taking BSA as standard.
Tubulin polymerization was monitored using a Helios α spectrophotometer by measuring the increase in turbidity at 450 nm, caused by a shift from 4 °C to 37 °C, which allows the in vitro microtubular protein to depolymerize and polymerize, respectively. The assay was carried out in quartz cuvettes containing 1.5 mg/mL microtubular protein and the ligand (except for control cuvette with only DMSO at the same concentration) in a mixture of 0.1 M MES buffer, 1 mM EGTA, 1 mM MgCl2, 1 mM β-ME, and 1.5 mM GTP at pH 6.7 (final volume 500 µL). Cuvettes were preincubated at 20 °C for 30 min, to allow ligand binding to tubulin, and subsequently cooled on ice for 10 min. Then, the experiment starts at 4 °C to establish the initial baseline. The assembly process was initiated by a temperature shift to 37 °C and the turbidity produced by tubulin polymerization can be measured by an absorbance increase. After reaching a stable plateau, the temperature was switched back to 4 °C to return to the initial absorption values (to confirm the reversible nature of the monitored process and to determine whether or not the microtubular tubular protein has stabilized). The difference in amplitude between the stable plateau and the initial baseline of the curves was taken as the degree of tubulin polymerization for each experiment. Comparison with control curves under identical conditions but without ligands yielded TPI as a percentage value. All compounds were tested at 10 µM concentration. Compounds that inhibited tubulin polymerization by at least 30% at 10 µM were tested at 20 µM. IC50 values were calculated for compounds that inhibit tubulin polymerization by more than 50% at 20 µM. Compounds were dissolved in DMSO, and the final solvent concentration never exceeded 4% (v/v), which has been reported not to interfere with the assembly process. All the measurements were carried out in at least two independent experiments using microtubular protein from different preparations.

Row | Compound | IC50 [1] | IC50 [2] | IC50 [3] | TPI % 10 µM [3]
1 | COc1ccc(/C=C\c2cc(OC)c(OC)c(OC)c2)cc1O [Combretastatin A-4, reference compound] | 2 nM | 1 nM | […] | […]
2 | COc1ccc(S(=O)(=O)Nc2cc(OC)c(OC)c(OC)c2)cc1 [Compound 1a] | 240 nM | 375 nM | > 20000 nM | 0%
3 | COc1ccc(S(=O)(=O)N(c2cc(OC)c(OC)c(OC)c2)S(=O)(=O)c2ccc(OC)cc2)cc1 [Compound 1b] | > 1000 nM | > 1000 nM | > 20000 nM | 0%
4 | COc1ccc(S(=O)(=O)N(C)c2cc(OC)c(OC)c(OC)c2)cc1 [Compound 2a] | 71 nM | 127 nM | > 20000 nM | 35%
5 | CCN(c1cc(OC)c(OC)c(OC)c1)S(=O)(=O)c1ccc(OC)cc1 [Compound 3] | 99 nM | 87 nM | > 20000 nM | 25%
6 | COc1ccc(S(=O)(=O)N(CCBr)c2cc(OC)c(OC)c(OC)c2)cc1 [Compound 4] | 94 nM | 340 nM | > 20000 nM | 30%
7 | COc1ccc(S(=O)(=O)N(C(C)=O)c2cc(OC)c(OC)c(OC)c2)cc1 [Compound 5] | 287 nM | 270 nM | > 20000 nM | 0%
8 | COc1ccc(S(=O)(=O)N(CC#N)c2cc(OC)c(OC)c(OC)c2)cc1 [Compound 6] | 143 nM | 275 nM | > 20000 nM | 0%
9 | CCOC(=O)CN(c1cc(OC)c(OC)c(OC)c1)S(=O)(=O)c1ccc(OC)cc1 [Compound 7] | 217 nM | 335 nM | > 20000 nM | 21%
10 | COc1ccc(S(=O)(=O)N(CC(=O)O)c2cc(OC)c(OC)c(OC)c2)cc1 [Compound 8] | > 1000 nM | > 1000 nM | > 20000 nM | 0%
11 | COc1ccc(S(=O)(=O)N(Cc2ccccc2)c2cc(OC)c(OC)c(OC)c2)cc1 [Compound 9] | 750 nM | 830 nM | > 20000 nM | 21%
12 | COc1ccc(S(=O)(=O)N(C(=O)OCc2ccccc2)c2cc(OC)c(OC)c(OC)c2)cc1 [Compound 10] | > 1000 nM | > 1000 nM | > 20000 nM | 11%
13 | COc1ccc(S(=O)(=O)Nc2cc(OC)c(OC)c(OC)c2[N+](=O)[O-])cc1 [Compound 11] | > 1000 nM | > 1000 nM | > 20000 nM | 10%
14 | COc1ccc(S(=O)(=O)Nc2cc(OC)c(OC)c(OC)c2N)cc1 [Compound 12] | > 1000 nM | > 1000 nM | > 20000 nM | 0%
15 | COc1ccc(S(=O)(=O)N(C)c2cc(OC)c(OC)c(OC)c2N)cc1 [Compound 13] | > 1000 nM | > 1000 nM | > 20000 nM | 0%
16 | COc1ccc(S(=O)(=O)Nc2cc(OC)c(OC)c(OC)c2NCN(c2cc(OC)c(OC)c(OC)c2N)S(=O)(=O)c2ccc(OC)cc2)cc1 [Compound 14] | > 1000 nM | > 1000 nM | > 20000 nM | 0%
17 | COc1ccc(S(=O)(=O)Nc2cc(OC)c(OC)c(OC)c2NC(C)=O)cc1 [Compound 15] | > 1000 nM | > 1000 nM | > 20000 nM | 0%
18 | COc1ccc(S(=O)(=O)N(C)c2cc(OC)c(OC)c(OC)c2NC(C)=O)cc1 [Compound 16] | > 1000 nM | > 1000 nM | > 20000 nM | 0%
19 | COc1ccc(S(=O)(=O)Nc2cc(OC)c(OC)c(OC)c2NC=O)cc1 [Compound 17] | > 1000 nM | > 1000 nM | > 20000 nM | 4%
20 | COc1ccc(S(=O)(=O)Nc2cc(OC)c(OC)c(OC)c2N(C)C)cc1 [Compound 18] | > 1000 nM | > 1000 nM | > 20000 nM | 0%
21 | COc1ccc(S(=O)(=O)N(C)c2cc(OC)c(OC)c(OC)c2N(C)C)cc1 [Compound 19] | > 1000 nM | > 1000 nM | > 20000 nM | 0%
22 | COc1ccc(S(=O)(=O)Nc2cc(OC)c(OC)c(OC)c2Br)cc1 [Compound 20] | > 1000 nM | > 1000 nM | > 20000 nM | 0%
23 | COc1ccc(S(=O)(=O)Nc2cc(OC)c(OC)c(OC)c2NC(=O)CNC(=O)OC(C)(C)C)cc1 [Compound 21] | > 1000 nM | > 1000 nM | > 20000 nM | 0%
24 | COc1ccc(S(=O)(=O)n2nnc3c(OC)c(OC)c(OC)cc32)cc1 [Compound 23] | > 1000 nM | > 1000 nM | > 20000 nM | 0%
25 | COc1ccc(S(=O)(=O)n2cnc3c(OC)c(OC)c(OC)cc32)cc1 [Compound 24] | > 1000 nM | > 1000 nM | > 20000 nM | 0%
26 | COc1cc(NS(=O)(=O)c2ccc([N+](=O)[O-])cc2)cc(OC)c1OC [Compound 25] | > 1000 nM | > 1000 nM | > 20000 nM | 0%
27 | COc1cc(NS(=O)(=O)c2ccc(N)cc2)cc(OC)c1OC [Compound 26] | > 1000 nM | > 1000 nM | > 20000 nM | 0%
28 | COc1cc(N(C)S(=O)(=O)c2ccc(N)cc2)cc(OC)c1OC [Compound 27] | > 1000 nM | > 1000 nM | > 20000 nM | 0%
